Reference: patent US20220273659A1, “HETEROCYCLIC COMPOUNDS AS KINASE INHIBITORS” (NUVATION BIO INC., priority 2019, published 2022)
Like-named read-outs stand apart in the source and are kept apart here.

Key:
[1] = system: MCF-7 breast adenocarcinoma cells; experiment: Cancer cell proliferation assay, single agent (cell viability); type: cell-based; details: Homo sapiens, MCF7, Table 4; Rb positive; treatment 144 Hr with medium change at 72 Hr; Cell Titer-Glo or resazurin
Method in brief: (§1)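 Cells seeded day 1, then exposed on day 2 to 7–9 compound concentrations (e.g. 1.1 nM–10 μM); BT-549 for 24 h, MCF-7 and DU4475 for 144 h with medium change at 72 h. Viability by CellTiter-Glo or resazurin; IC50 from variable-slope sigmoidal fit.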

[2] = system: Rb Ser780 phosphorylation in MCF-7 cells; experiment: Determination of pRb levels (Ser780 phosphorylation, ELISA); type: cell-based; details: Homo sapiens, 24H treatment, percentage of vehicle control
Protocol: Hypo-phosphorylation of the retinoblastoma protein (Rb) by cyclin D:Cdk4/6 complexes results in active Rb, which is a clinically relevant biomarker associated with CDK4 or CDK6 inhibition. As a confirmatory measure of functional activity of CDK4/6, the Ser780 phosphorylation state of Rb was assessed. MCF-7 cells were plated at 2.5×10^5 to 3.0×10^6 cells/well in 6-well cell-culture plates and incubated at 37° C. for 24H in MEM medium supplemented with 10% FBS. Cells were treated for 24H with a medium containing test compound at various concentrations (e.g., 0.01, 0.1, […]) or with DMSO (≤1%) in duplicate. After incubation period, the media was removed, and cells were rinsed once with ice-cold PBS and lysed with 0.2 mL of Cell Lysis Buffer containing 1 mM PMSF and Protease Inhibitor. Protein concentration was estimated following Bradford method. The lysis and the Rb measurements were performed following the manufacturer's ELISA kit protocols and buffers (Cell Signaling Technology, Cat. No.: 13016C). Rb inhibition of test compounds was calculated as percentage of vehicle control. In some cases, a nonlinear regression model with a sigmoidal dose response and variable slope within GraphPad Prism was used to calculate the IC50 value of Rb inhibition for individual test compounds.

CDK6 = biological target: T1, CDK6 (Homo sapiens, UniProt Q00534); experiment: In vitro kinase inhibition IC50, luminescence (ADP Glo), retinoblastoma substrate; type: biochemical; details: read-out: CDK6/D1 IC50
T1 construct: purchased Invitrogen PR8422B
Method in brief: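 Recombinant CDK6 (5 nM) with retinoblastoma substrate (1 μM) and 25 μM ATP, compound at final 0.1–200 nM, incubated 2 h at room temperature. ADP formed detected by ADP-Glo luminescence. IC50 from four-parameter logistic fit of percent inhibition.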

CDK4 = biological target: T2, CDK4 (Homo sapiens, UniProt P11802); experiment: as above; type: biochemical; details: read-out: CDK4/D1 IC50
T2 construct: purchased Invitrogen PR8064A
Method in brief: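 CDK4 enzyme (5 nM, Invitrogen) was combined with test compound and a mix of retinoblastoma substrate (1 μM) plus ATP (25 μM) in kinase buffer, 30 μL/well in 96-well half area white plates. After 2H at room temperature, ADP Glo reagent stopped the reaction for 45 min, then detection reagent was added and luminescence was read.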

PI3Kδ kinase = biological target: T3, PI3Kδ kinase (Homo sapiens, UniProt O00329); experiment: PI3Kδ kinase assay (ADP-Glo, Reaction Biology); type: biochemical
T3 construct: purchased Reaction Biology Corporation (assay service)
Method in brief: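 Kinase in Tris-HCl 40 mM pH 7.5, MgCl2 20 mM, orthovanadate 3 mM, DTT 2 mM, 0.05% CHAPS, 1% DMSO, preincubated 10 min at room temperature with compound (about 0.5 nM–100 μM). ATP started a 30-min reaction at 30 °C. ADP-Glo luminescence converted to μM ADP via standard curve; IC50 from nonlinear regression.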

FMS kinase = biological target: T4, FMS kinase (Homo sapiens, UniProt P07333); experiment: LanthaScreen Eu Kinase Binding Assay (ATP, fluorescent-PolyGT substrate); type: biochemical
T4 construct: purchased Invitrogen (Life Technologies)
Method in brief: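 Kinase (1.25 nM) preincubated 10 min with 3-fold compound dilutions, then ATP 10 μM and fluorescent PolyGT substrate 200 nM added for 1 h in the dark at room temperature. Stopped with Tb-antibody (4 nM) and EDTA 20 mM; TR-FRET at 340 nm excitation, 495/520 nm emission; IC50 from four-parameter fit.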

[3] = system: DU4475 breast carcinoma cells; experiment: Cancer cell proliferation assay, single agent (cell viability); type: cell-based; details: Homo sapiens, DU-4475; Table 4; Rb negative; treatment 144 Hr with medium change at 72 Hr; Cell Titer-Glo or resazurin
Method in brief: as §1

CDK2 (cyclin A) = biological target: T5, CDK2 (cyclin A) (Homo sapiens, UniProt P24941); experiment: Z'-LYTE kinase assay; type: biochemical
T5 construct: purchased Invitrogen Life Technologies (assay service)
Method in brief: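 FRET-based Z′-LYTE read-out using 1.22–10.3 ng CDK2/cyclin A with Ser/Thr 12 peptide (2 μM in the 2× mix) and ATP (31 μM as the 4× solution), in HEPES pH 7.5, MgCl2, EGTA and BRIJ-35, for 60 min at room temperature. After 1 h of development, the 445/520 nm emission was read, and percent inhibition was fitted to a four-parameter logistic curve for IC50.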

CDK1 (cyclin B) = biological target: T6, CDK1 (cyclin B) (Homo sapiens, UniProt P06493); experiment: Z'-LYTE kinase assay; type: biochemical
T6 construct: purchased Invitrogen Life Technologies (assay service)
Protocol: The plates were shaken for 30 seconds, and incubated for 60 minutes at room temperature. […] The plates were read on fluorescence plate reader with Dual emission at 445 nm and 520 nm.
The following equations were used for Z′-LYTE™ Screening Assay Data Analysis.

T2 sequence (P11802 whole entry): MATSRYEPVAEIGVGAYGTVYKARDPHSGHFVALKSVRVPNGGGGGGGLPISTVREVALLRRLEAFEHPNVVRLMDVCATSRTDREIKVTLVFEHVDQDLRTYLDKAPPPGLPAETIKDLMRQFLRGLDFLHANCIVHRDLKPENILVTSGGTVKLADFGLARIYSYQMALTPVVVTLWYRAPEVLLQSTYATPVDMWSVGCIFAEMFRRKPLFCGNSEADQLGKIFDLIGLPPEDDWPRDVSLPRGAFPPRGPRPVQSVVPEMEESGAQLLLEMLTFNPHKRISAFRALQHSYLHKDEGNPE
T2 sequence (P24385 whole entry partner): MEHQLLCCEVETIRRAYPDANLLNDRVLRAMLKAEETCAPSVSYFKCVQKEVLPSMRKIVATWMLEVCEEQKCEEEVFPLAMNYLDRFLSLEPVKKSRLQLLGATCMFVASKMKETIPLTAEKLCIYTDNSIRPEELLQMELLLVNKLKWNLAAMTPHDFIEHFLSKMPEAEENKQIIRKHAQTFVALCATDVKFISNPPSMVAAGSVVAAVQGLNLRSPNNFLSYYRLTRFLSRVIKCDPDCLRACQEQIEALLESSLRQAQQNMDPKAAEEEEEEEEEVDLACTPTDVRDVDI
T4 sequence (P07333 20-972): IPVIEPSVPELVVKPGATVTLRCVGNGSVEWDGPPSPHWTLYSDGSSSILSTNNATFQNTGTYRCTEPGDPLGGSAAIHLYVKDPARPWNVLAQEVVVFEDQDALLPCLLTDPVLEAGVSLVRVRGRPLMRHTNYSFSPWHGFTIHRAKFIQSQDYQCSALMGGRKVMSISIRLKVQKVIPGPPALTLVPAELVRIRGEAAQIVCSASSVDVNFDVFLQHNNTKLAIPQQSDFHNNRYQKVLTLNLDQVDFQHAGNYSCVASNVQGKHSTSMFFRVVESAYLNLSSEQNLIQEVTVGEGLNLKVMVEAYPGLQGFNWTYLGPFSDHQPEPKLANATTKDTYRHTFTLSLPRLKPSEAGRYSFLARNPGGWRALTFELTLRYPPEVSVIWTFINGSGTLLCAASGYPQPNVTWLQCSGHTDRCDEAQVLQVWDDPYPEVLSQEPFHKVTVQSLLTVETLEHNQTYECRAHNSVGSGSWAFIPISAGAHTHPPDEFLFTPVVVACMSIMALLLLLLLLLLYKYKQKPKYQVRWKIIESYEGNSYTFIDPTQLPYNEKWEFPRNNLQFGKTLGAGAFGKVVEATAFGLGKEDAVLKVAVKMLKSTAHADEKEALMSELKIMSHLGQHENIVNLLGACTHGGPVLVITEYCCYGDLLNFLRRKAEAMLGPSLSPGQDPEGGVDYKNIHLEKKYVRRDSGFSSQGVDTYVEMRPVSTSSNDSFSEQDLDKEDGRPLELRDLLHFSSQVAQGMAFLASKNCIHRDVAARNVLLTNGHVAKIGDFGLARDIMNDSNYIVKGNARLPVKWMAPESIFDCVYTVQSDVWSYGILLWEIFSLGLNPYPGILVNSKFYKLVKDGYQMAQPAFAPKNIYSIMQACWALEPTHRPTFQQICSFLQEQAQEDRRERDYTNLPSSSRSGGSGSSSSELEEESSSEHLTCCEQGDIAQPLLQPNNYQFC
T1 sequence (Q00534 whole entry): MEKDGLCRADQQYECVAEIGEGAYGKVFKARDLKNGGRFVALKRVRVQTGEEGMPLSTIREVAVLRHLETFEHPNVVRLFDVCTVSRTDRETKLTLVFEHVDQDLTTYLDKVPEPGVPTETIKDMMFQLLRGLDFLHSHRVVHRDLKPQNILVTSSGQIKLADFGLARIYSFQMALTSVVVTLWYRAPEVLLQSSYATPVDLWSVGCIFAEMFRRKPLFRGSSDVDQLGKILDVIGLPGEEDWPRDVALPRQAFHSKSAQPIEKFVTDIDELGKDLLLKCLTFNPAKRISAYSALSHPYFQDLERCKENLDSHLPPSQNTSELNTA
T1 sequence (P24385 whole entry partner): as the sequence (P24385 whole entry partner) above
T6 sequence (P06493 whole entry): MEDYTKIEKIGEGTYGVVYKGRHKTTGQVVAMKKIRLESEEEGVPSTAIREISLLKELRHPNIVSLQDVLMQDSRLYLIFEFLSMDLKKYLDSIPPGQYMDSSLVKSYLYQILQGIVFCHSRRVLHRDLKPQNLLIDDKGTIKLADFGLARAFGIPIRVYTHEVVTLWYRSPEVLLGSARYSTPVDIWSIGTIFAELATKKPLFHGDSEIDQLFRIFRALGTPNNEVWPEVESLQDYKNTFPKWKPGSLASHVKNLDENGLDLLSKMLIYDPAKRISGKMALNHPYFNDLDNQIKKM
T6 sequence (P14635 whole entry partner): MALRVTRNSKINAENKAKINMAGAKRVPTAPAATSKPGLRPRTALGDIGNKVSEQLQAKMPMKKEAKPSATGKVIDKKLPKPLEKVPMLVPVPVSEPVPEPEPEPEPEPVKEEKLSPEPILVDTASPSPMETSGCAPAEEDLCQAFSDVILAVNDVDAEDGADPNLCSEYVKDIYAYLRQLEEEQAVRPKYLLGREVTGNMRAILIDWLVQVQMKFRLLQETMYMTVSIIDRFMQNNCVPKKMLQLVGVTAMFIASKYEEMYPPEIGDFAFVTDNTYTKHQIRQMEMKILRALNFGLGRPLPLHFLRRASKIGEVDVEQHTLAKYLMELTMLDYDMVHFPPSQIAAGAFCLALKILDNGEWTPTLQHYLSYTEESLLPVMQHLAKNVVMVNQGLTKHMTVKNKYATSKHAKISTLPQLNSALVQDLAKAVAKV
T3 sequence (O00329 whole entry): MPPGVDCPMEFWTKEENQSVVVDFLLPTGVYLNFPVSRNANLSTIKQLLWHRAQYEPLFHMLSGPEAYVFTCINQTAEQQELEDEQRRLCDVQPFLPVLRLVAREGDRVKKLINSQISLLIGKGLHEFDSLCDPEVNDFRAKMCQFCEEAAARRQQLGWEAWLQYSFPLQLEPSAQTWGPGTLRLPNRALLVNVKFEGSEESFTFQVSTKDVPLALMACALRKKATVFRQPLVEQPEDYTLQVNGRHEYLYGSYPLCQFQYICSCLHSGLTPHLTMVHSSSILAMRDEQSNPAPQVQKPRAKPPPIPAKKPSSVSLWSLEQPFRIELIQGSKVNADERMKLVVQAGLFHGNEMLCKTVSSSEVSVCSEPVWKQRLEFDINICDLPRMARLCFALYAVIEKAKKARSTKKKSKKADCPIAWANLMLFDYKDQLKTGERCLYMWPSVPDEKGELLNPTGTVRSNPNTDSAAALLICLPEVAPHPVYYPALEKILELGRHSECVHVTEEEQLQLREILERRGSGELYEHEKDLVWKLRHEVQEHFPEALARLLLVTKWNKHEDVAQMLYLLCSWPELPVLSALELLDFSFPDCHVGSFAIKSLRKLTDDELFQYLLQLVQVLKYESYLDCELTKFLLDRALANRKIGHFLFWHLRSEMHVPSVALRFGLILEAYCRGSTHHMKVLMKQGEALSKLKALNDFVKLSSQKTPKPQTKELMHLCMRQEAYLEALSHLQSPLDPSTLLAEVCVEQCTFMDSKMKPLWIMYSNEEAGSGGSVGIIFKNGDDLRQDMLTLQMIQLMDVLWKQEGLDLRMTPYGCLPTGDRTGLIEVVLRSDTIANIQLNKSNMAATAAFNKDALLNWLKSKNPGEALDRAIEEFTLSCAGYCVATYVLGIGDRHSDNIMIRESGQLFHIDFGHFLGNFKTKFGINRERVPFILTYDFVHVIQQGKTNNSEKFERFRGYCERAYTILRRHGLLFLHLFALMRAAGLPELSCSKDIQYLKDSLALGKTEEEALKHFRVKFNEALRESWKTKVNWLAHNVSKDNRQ
T3 sequence (P27986 whole entry partner): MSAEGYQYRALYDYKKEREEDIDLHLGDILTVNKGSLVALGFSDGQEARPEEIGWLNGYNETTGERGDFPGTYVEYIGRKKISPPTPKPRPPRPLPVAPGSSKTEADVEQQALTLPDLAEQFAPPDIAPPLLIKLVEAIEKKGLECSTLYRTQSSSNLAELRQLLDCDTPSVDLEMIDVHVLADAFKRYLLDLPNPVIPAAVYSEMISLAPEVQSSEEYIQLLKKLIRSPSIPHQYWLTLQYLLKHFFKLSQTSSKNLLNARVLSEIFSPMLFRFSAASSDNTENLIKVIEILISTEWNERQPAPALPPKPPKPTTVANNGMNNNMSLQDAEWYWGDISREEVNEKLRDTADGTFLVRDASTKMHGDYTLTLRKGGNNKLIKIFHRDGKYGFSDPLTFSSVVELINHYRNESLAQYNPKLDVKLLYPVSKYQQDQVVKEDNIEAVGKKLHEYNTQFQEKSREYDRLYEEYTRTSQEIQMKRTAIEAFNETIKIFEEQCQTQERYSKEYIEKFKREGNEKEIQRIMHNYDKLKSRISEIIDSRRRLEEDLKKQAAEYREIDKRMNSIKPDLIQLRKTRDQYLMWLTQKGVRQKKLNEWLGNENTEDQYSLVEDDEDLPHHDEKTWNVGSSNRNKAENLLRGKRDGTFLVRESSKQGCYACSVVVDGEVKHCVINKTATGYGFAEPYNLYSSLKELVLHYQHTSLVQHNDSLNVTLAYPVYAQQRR

Question: `N#Cc1cc2cnc(Nc3ccc(N4CCNCC4)cc3)nc2n(C2CCCc3ccccc32)c1=O` (stereo not drawn) [Compound No. 39, 7-oxo-2-((4-(piperazin-1-yl)phenyl)amino)-8-(1,2,3,4-tetrahydronaphthalen-1-yl)-7,8-dihydropyrido[2,3-d]pyrimidine-6-carbonitrile] was tested. Which IC50 [1] did it give?
Answer: Its IC50 is 2280 nM.

Question: And the inhibition at 0.01 µM ([2]; MCF7, 0.01 μM)?
Answer: Its inhibition at 0.01 µM is -25%.

Question: And the inhibition at 0.1 µM ([2]; MCF7, 0.1 μM)?
Answer: Its inhibition at 0.1 µM is 40%.

Question: What about the inhibition at 1 µM ([2]; MCF7, 1 μM) of the same compound?
Answer: The inhibition at 1 µM was 52%.

Question: What about the IC50 (CDK6) of the same compound?
Answer: Its IC50 is 1.5 nM.

Question: And the IC50 (CDK4)?
Answer: The IC50 was 2 nM.

Question: And the IC50 (PI3Kδ kinase)?
Answer: The IC50 was 906 nM.

Question: What about the IC50 (FMS kinase) of the same compound?
Answer: The IC50 was 7 nM.

Question: With `N#Cc1cc2cnc(NC3CCN(S(=O)(=O)CC(F)(F)F)CC3)nc2n(C2CCCC2)c1=O` [Compound No. 358, 8-cyclopentyl-7-oxo-2-((1-((2,2,2-trifluoroethyl)sulfonyl)piperidin-4-yl)amino)-7,8-dihydropyrido[2,3-d]pyrimidine-6-carbonitrile] as the compound, how does the IC50 [1] read?
Answer: Its IC50 is 2800 nM.

Question: What about the IC50 [3] of the same compound?
Answer: Its IC50 is 12800 nM.

Question: What about the IC50 (CDK2 (cyclin A)) of the same compound?
Answer: The IC50 was 119 nM.

Question: And the IC50 (CDK6)?
Answer: Its IC50 is 6.6 nM.

Question: And the IC50 (CDK4)?
Answer: Its IC50 is 4.4 nM.

Question: And the IC50 (PI3Kδ kinase)?
Answer: The IC50 was greater than 44000 nM.

Question: And the IC50 (CDK1 (cyclin B))?
Answer: Its IC50 is 1380 nM.

Question: And the IC50 (FMS kinase)?
Answer: Its IC50 is 1130 nM.

Question: What does the source list for `CS(=O)(=O)N1CCC[C@H](Nc2ncc3cc(C#N)c(=O)n(C4CCCC4)c3n2)C1` [Compound No. 364, (S)-8-cyclopentyl-2-((1-(methylsulfonyl)piperidin-3-yl)amino)-7-oxo-7,8-dihydropyrido[2,3-d]pyrimidine-6-carbonitrile]?
Answer: IC50 [1]: 3330 nM; IC50 [3]: 5660 nM; IC50 (CDK2 (cyclin A)): > 5000 nM; IC50 (CDK6): > 200 nM; IC50 (CDK4): > 200 nM; IC50 (PI3Kδ kinase): 825 nM; IC50 (CDK1 (cyclin B); read-out: CDK1/B IC50): > 5000 nM; IC50 (FMS kinase): 64 nM

Question: With `CS(=O)(=O)N1CCC[C@@H](Nc2ncc3cc(C#N)c(=O)n(C4CCCC4)c3n2)C1` [Compound No. 365, (R)-8-cyclopentyl-2-((1-(methylsulfonyl)piperidin-3-yl)amino)-7-oxo-7,8-dihydropyrido[2,3-d]pyrimidine-6-carbonitrile] as the compound, how does the IC50 [1] read?
Answer: The IC50 was 1260 nM.

Question: And the IC50 [3]?
Answer: The IC50 was 5630 nM.

Question: What about the IC50 (CDK2 (cyclin A)) of the same compound?
Answer: The IC50 was 1240 nM.

Question: What about the IC50 (CDK6) of the same compound?
Answer: Its IC50 is greater than 200 nM.

Question: What about the IC50 (CDK4) of the same compound?
Answer: Its IC50 is 167 nM.

Question: And the IC50 (PI3Kδ kinase)?
Answer: The IC50 was 1710 nM.

Question: And the IC50 (CDK1 (cyclin B); read-out: CDK1/B IC50)?
Answer: The IC50 was greater than 5000 nM.

Question: And the IC50 (FMS kinase)?
Answer: The IC50 was 311 nM.

Question: Which results are given for `CN(C)S(=O)(=O)N1CCC(Nc2ncc3cc(C#N)c(=O)n(C4CCCC4)c3n2)CC1` [Compound No. 366, 4-((6-cyano-8-cyclopentyl-7-oxo-7,8-dihydropyrido[2,3-d]pyrimidin-2-yl)amino)-N,N-dimethylpiperidine-1-sulfonamide]?
Answer: IC50 [1]: 320 nM; IC50 [3]: 2410 nM; IC50 (CDK2 (cyclin A)): 151 nM; IC50 (CDK6): 4.5 nM; IC50 (CDK4): 22 nM; IC50 (PI3Kδ kinase): > 48200 nM; IC50 (CDK1 (cyclin B)): 2930 nM; IC50 (FMS kinase): 925 nM

Question: How did the IC50 [1] turn out when `CS(=O)(=O)N1CCC(Nc2ncc3cc(C#N)c(=O)n(C4CCCCC4)c3n2)CC1` [Compound No. 367, 8-cyclohexyl-2-((1-(methylsulfonyl)piperidin-4-yl)amino)-7-oxo-7,8-dihydropyrido [2,3-d] pyrimidine-6-carbonitrile] was run?
Answer: Its IC50 is 640 nM.

Question: And the IC50 [3]?
Answer: Its IC50 is 5160 nM.

Question: What about the IC50 (CDK2 (cyclin A)) of the same compound?
Answer: Its IC50 is 308 nM.

Question: What about the IC50 (CDK6) of the same compound?
Answer: Its IC50 is 7.4 nM.

Question: What about the IC50 (CDK4) of the same compound?
Answer: The IC50 was 55 nM.

Question: And the IC50 (PI3Kδ kinase)?
Answer: The IC50 was 539 nM.

Question: And the IC50 (CDK1 (cyclin B))?
Answer: The IC50 was 2920 nM.

Question: What about the IC50 (FMS kinase) of the same compound?
Answer: Its IC50 is 102 nM.
